Experimental data from paper PMC11008251, “Distribution of 2,2′,5,5′-Tetrachlorobiphenyl (PCB52) Metabolites in Adolescent Rats after Acute Nose-Only Inhalation Exposure” (Environmental Science & Technology, 2024).
Like-named read-outs stand apart in the source and are kept apart here.

How the values were obtained:
[1] = PCB52 and monohydroxylated metabolite tissue levels by GC-MS/MS after 4 h nose-only inhalation; type: in vivo, Sprague–Dawley rats; details: Sprague-Dawley, rat, inhaled
Procedure: PCB52 vapor for the animal exposure was generated using a published protocol.[12] Briefly, 450 g of 3 mm diameter glass beads were added to a solution of 1.5 g of PCB52 in dichloromethane. The glass beads were then coated with PCB52 by evaporating dichloromethane in a water bath at 29 °C using a rotary evaporator (Buchi Rotavapor R-200, New Castle, DE) under reduced pressure. For the animal exposures, high-efficiency particulate air (HEPA)-filtered laboratory air was passed through the PCB52-coated glass beads at a flow rate of 12 L/min to expose animals to PCB52 vapor in a nose-only exposure apparatus (Figure 1A). The flask of PCB52-coated beads and mixing chamber were kept at 25.0 °C using a precision water bath to facilitate the volatilization of PCB52. The PCB52-laden air was passed through a mixing chamber and distributed to the nose-only inhalation apparatus at a flow rate of 4 L/min per tower (n = 3) and a sampling cartridge filled with 10 g of Amberlite XAD-2 polymeric absorbent resin (Sigma-Aldrich, St. Louis, MO) at a flow rate of 2 L/min. The specified flow rates were generated using flow meter-regulated pumps. The XAD-2 cartridge was used to capture PCB52 vapor to characterize the exposure atmosphere. A sham exposure group was exposed in parallel to HEPA-filtered clean air in an identical nose-only exposure system in an adjacent lab with no supplied PCB52.
The Institutional Animal Care and Use Committee of the University of Iowa approved all of the animal protocols. Animals were housed in a temperature- and humidity-controlled room (21 °C, 55% relative humidity) with a 12 h light/dark cycle in an Association for the Assessment and Accreditation of Laboratory Animal Care (AAALAC) accredited animal facility. Animals were provided with food (sterile Teklad 5% stock diet, Harlan, Madison, WI) and water ad libitum throughout the study. Thirty-six male and female Sprague–Dawley rats (7 weeks of age; Charles River, Wilmington, MA) were allowed to acclimate to the animal facility for 8 days after arrival. Prior to exposure, rats (227 ± 27 and 197 ± 13 g, male and female, respectively) were randomly assigned to the exposure groups (n = 6 per group) using a random number generated (Excel, version 2307). Animals were simultaneously exposed for 4 h to a low or high concentration of PCB52-laden per sex) or filtered lab air (Figure 1A). Exposure duration was limited to 4 h along with scheduled training days (30 min at 55 days of age and 2 h at 56 days of age) to acclimate animals and minimize stress. […] Animal exposure occurred for 4 h at 57 days of age. Rats are considered adolescents at this age.[38] Serum was collected immediately after the animals were removed from the nose-only apparatus by cardiac puncture under isoflurane anesthesia. Rats were perfused with saline, and organs were excised and stored at −80 °C. Body and organ weights, including brain, lungs, and thymus, were not altered by PCB52 inhalation regardless of sex or exposure (Tables S2 and S3).
PCB52 and its hydroxylated metabolites were extracted from tissues, serum, and cecum and intestinal content using a published protocol;[40],[41] see the Supporting Information. Briefly, PCB52 and its metabolites were extracted from homogenates by liquid–liquid extraction and cleaned by solid-phase extraction with acidified silica gel. PCB52 and metabolites were quantified in the multiple reaction monitoring setting (MRM) on an Agilent 7890 A GC system equipped with an Agilent 7000 Triple Quad and Agilent 7693 autosampler (Agilent Technologies, Santa Clara, CA); see the Supporting Information.
PCB52 and metabolite levels, adjusted for tissue wet weight, are reported as the mean ± standard deviation. Differences in PCB52 and metabolite levels from the GC-MS/MS analysis were analyzed with the Tobit regression model because some measurements are below the detection limit. […]

[2] = design: method as in PMID 36804509; details: 3 weeks after intraperitoneal administration of PCB52 100 mg/kg bw; cited from earlier work
[3] = design: method as in PMID 23582014; details: male rats exposed acutely to PCB11 vapors; cited from earlier work
[4] = design: method as in PMID 24275706; details: cited from earlier work

Which concentration at 4 h ([1]; both sexes, brain, irrespective of sex and exposure group, GC-MS/MS, read-out: level in the brain (below the detection limit)) does the source give for `Oc1cc(Cl)c(-c2cc(Cl)ccc2Cl)cc1Cl` [4-OH-PCB52, 2,2′,5,5′-Tetrachlorobiphenyl-4-ol] here?
Its concentration at 4 h is < 0.16 ng/g.

What about the concentration at 4 h ([1]; female, adipose, female, high dose, mean, read-out: PCB or metabolite detected level, Adipose) of the same compound?
Its concentration at 4 h is 0.2 ng/g.

What about the concentration at 4 h ([1]; female, cecum, female, high dose, mean, read-out: PCB or metabolite detected level, Cecum) of the same compound?
The concentration at 4 h was 3 ng/g.

What about the concentration at 4 h ([1]; female, cecum, female, low dose, mean, read-out: PCB or metabolite detected level, Cecum) of the same compound?
The concentration at 4 h was 2 ng/g.

And the concentration at 4 h ([1]; female, intestinal content, female, high dose, mean, read-out: PCB or metabolite detected level, Intestinal content)?
Its concentration at 4 h is 5 ng/g.

And the concentration at 4 h ([1]; female, intestinal content, female, low dose, mean, read-out: PCB or metabolite detected level, Intestinal content)?
Its concentration at 4 h is 4 ng/g.

What about the concentration at 4 h ([1]; female, liver, female, high dose, mean, read-out: PCB or metabolite detected level, Liver) of the same compound?
Its concentration at 4 h is 0.2 ng/g.

What about the concentration at 4 h ([1]; female, liver, female, low dose, mean, read-out: PCB or metabolite detected level, Liver) of the same compound?
The concentration at 4 h was 0.2 ng/g.

What about the concentration at 4 h ([1]; female, lung, female, high dose, mean, read-out: PCB or metabolite detected level, Lung) of the same compound?
The concentration at 4 h was 0.2 ng/g.

And the concentration at 4 h ([1]; female, lung, female, low dose, mean, read-out: PCB or metabolite detected level, Lung)?
Its concentration at 4 h is 0.1 ng/g.

And the concentration at 4 h ([1]; female, serum, female, high dose, mean, read-out: PCB or metabolite detected level, Serum)?
Its concentration at 4 h is 0.1 ng/g.

What about the concentration at 4 h ([1]; female, serum, female, low dose, mean, read-out: PCB or metabolite detected level, Serum) of the same compound?
The concentration at 4 h was 0.4 ng/g.

What about the concentration at 4 h ([1]; male, adipose, male, high dose, mean, read-out: PCB or metabolite detected level, Adipose) of the same compound?
The concentration at 4 h was 0.2 ng/g.

And the concentration at 4 h ([1]; male, cecum, male, high dose, mean, read-out: PCB or metabolite detected level, Cecum)?
Its concentration at 4 h is 2 ng/g.

What about the concentration at 4 h ([1]; male, cecum, male, low dose, mean, read-out: PCB or metabolite detected level, Cecum) of the same compound?
The concentration at 4 h was 1 ng/g.

What about the concentration at 4 h ([1]; male, intestinal content, male, high dose, mean, read-out: PCB or metabolite detected level, Intestinal content) of the same compound?
Its concentration at 4 h is 0.4 ng/g.

And the concentration at 4 h ([1]; male, liver, male, high dose, mean, read-out: PCB or metabolite detected level, Liver)?
Its concentration at 4 h is 0.3 ng/g.

What about the concentration at 4 h ([1]; male, liver, male, low dose, mean, read-out: PCB or metabolite detected level, Liver) of the same compound?
Its concentration at 4 h is 0.1 ng/g.

What about the concentration at 4 h ([1]; male, lung, male, high dose, mean, read-out: PCB or metabolite detected level, Lung) of the same compound?
Its concentration at 4 h is 0.2 ng/g.

What about the concentration at 4 h ([1]; male, lung, male, low dose, mean, read-out: PCB or metabolite detected level, Lung) of the same compound?
Its concentration at 4 h is 0.1 ng/g.

And the concentration at 4 h ([1]; male, serum, male, high dose, mean, read-out: PCB or metabolite detected level, Serum)?
The concentration at 4 h was 0.4 ng/g.

What about the concentration at 4 h ([1]; male, serum, male, low dose, mean, read-out: PCB or metabolite detected level, Serum) of the same compound?
Its concentration at 4 h is 0.4 ng/g.

And the “detection frequency in the rat brain” value [2]?
The value was 20%.

For `Clc1cccc(-c2cccc(Cl)c2)c1` [PCB11, 3,3′-dichlorobiphenyl], which “rank order of tissue levels” value [3] is on record?
The value was “lung > serum > liver”.

And the “time to radioactivity in the systemic circulation” value ([4]; intratracheally instilled 14C-labeled PCB11)?
The value was ≤ 12 min.

And the “time of highest levels of extractable PCB11 metabolites in the jejunum and ileum” value ([4]; postexposure)?
Its value is “approximately 100 min”.
